These results are taken from PMC9568543, “Bee-safe peptidomimetic acaricides achieved by comparative genomics” (Scientific Reports, 2022).

In one assay the test system is Varroa mites. As to the kind of experiment: Varroa mite feeding assay (drop on gnathosoma), paralysis/death. In kind it is in vivo, Varroa destructor. The settings on record: 48 h; 200 nL on gnathosoma; 0.1 nM (methods) / 0.01 nM (Fig. 4 legend). How it is done: In the continued bioassay, the toxicities were assessed by counting paralysis/death in feeding assay. A drop of 200 nL solution was placed on the gnathosoma of an immobilized mite for forced feedings of active components. Low levels of acute toxicities of peptidomimetics were indicated by lower than 50% effects within 6 h after the treatments. The toxic effects were increased over time and reached 100% of the effects in the 48 h treatments of 2336 (Fig. 4, ANOVA p < 0.05). In H2O control, about 10% or less of the number of individuals were paralyzed/dead. Accurate cause of the paralysis/death remains yet to be studied.
Adult female Varroa mites were collected using a sugar roll method from honey bee hives located at the East Campus apiary of the University of Nebraska (Lincoln, NE USA) in September–October 2019. The hives were not treated with chemicals for honey bee parasites or pathogens. The mites were sorted in the laboratory with a paint brush and tested within 4 h post collection. […] The number of affected (i.e., dead and/paralyzed) was observed and recorded at 1, 2, 6, 12, 24, and 48 h. The percent effect for each treatment was analyzed using a one-way analysis of variance (ANOVA) with a Tukey’s post-hoc test (GraphPad Prism, La Jolla, CA; p < 0.05).

Assay [1] addresses Varroa mite proctolin receptor (VdProctR) (Varroa destructor, UniProt A0A7T1TE40). Description: Receptor activity assay (aequorin luminescence), CHO cells transiently expressing the receptor, first set of ligands. In kind it is cell-based. The settings on record: activities at 1 μM and 10 μM. On the procedure: (§1) Approximately thirty hours after transfection, the cells were collected and preincubated with coelenterazine h for the functional assay, as previously described[30],[31],[52]. The ligands in serial dilutions were loaded into 96-well opaque plates. Cells treated with coelenterazine h were injected into each well on an Orion microplate luminometer (Berthold) luminescent plate reader. The luminescence was measured for 20 s immediately after the cell injections. Data analyses were performed to determine the accumulated luminescence value for 20 s after extraction of blank-well luminescence. […] The three biological replications were regressed for the dose–response curves with 95% confidence intervals (Table 1). For the tests of the second set of ligands, we used the cell line that stably expressed VdProctR, which were selected by Zeocin for 5 passages.

For a further assay, the system named is Bombyx mori larval gut. The settings on record: cited from earlier work.
Assay [2] concerns honey bee FMRFamide receptor. Description: Activity on honey bee FMRFamide receptor expressed in CHO cells. In kind it is cell-based, Apis mellifera. How it is done:
as §1, with “Honey bee FMRFamide receptor was cloned and expressed in the same system as described for the proctolin receptor. […] Approximately” for “Approximately”, “dose-response” for “dose–response”

The next assay has as its system CHO cells, empty vector. As to the kind of experiment: Negative control, CHO cells transfected with the empty vector. In kind it is cell-based, Chinese hamster. The settings on record: 10 µM. How it is done: The receptor was also tested with a variety of peptide analogs and peptidomimetics.
Approximately thirty hours after transfection, the cells were collected and preincubated with coelenterazine h for the functional assay, as previously described[30],[31],[52]. The ligands in serial dilutions were loaded into 96-well opaque plates. Cells treated with coelenterazine h were injected into each well on an Orion microplate luminometer (Berthold) luminescent plate reader. The luminescence was measured for 20 s immediately after the cell injections. Data analyses were performed to determine the accumulated luminescence value for 20 s after extraction of blank-well luminescence. A dose–response curve was generated and the EC50 (50% effective concentration) was calculated in Origin 7 (OriginLab) as described in Jiang et al.[31],[53]. The three biological replications were regressed for the dose–response curves with 95% confidence intervals (Table 1). For the tests of the second set of ligands, we used the cell line that stably expressed VdProctR, which were selected by Zeocin for 5 passages.

Another assay concerns honey bee queen. As to conditions: injection, 1 µL containing 1 µg; cited from earlier work.

Where a SMILES comes first, the peptide text is derived from it. Where no end group is shown, it is not given here. [ ]: non-standard residue; d: D form. Oic = O=C(O)[C@@H]1C[C@@H]2CCCC[C@@H]2N1

Varroa mite proctolin receptor (VdProctR), sequence (A0A7T1TE40 entry or part of it): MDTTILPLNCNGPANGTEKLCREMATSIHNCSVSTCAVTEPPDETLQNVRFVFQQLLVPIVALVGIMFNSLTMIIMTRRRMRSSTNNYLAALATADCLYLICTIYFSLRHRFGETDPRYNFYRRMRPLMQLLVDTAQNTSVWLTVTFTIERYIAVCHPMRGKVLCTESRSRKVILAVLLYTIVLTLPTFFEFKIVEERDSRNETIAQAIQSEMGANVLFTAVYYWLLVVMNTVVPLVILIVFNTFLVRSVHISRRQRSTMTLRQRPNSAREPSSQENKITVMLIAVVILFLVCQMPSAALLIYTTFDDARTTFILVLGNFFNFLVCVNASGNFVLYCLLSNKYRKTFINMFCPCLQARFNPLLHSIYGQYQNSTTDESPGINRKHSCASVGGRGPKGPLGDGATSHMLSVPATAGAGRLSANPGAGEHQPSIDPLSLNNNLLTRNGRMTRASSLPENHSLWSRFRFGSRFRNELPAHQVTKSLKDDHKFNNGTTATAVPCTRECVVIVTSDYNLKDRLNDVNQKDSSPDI

Regarding `CC(C)C[C@H](NC(=O)[C@H](Cc1ccc(O)cc1)NC(=O)[C@@H](N)CCCNC(=N)N)C(=O)N1[C@H](C(=O)N[C@H](C(=O)O)[C@@H](C)O)C[C@@H]2CCCC[C@@H]21` [Analog 2336, RYL[Oic]T] (H-RYL[Oic]T-OH; N-terminus and C-terminus assumed), the “effects (paralyzed or dead mites)” value with Varroa mites worked out at 100%. In assay [1], the “efficacy (maximal response) compared with proctolin” value was “higher than that of proctolin”.

As for RYLPT [Proctolin, RYLPT], the “concentration required for hindgut contraction” value with Bombyx mori larval gut (Bombyx mori larval hindgut) is on record as 180 µM. The “concentration required in the midgut to slightly reduce leucine uptake” value in the assay with Bombyx mori larval gut (Bombyx mori larval midgut) is given as 10 µM. Moreover, the “activity on honey bee FMRFamide receptor” value in assay [2] was “no activities”. Moreover, the “activity on empty-vector transfected cells” value with CHO cells, empty vector is listed as “did not show any activity”. Also, the “effect on egg-laying activity of the queen” value in the assay with honey bee queen is recorded as “increased the egg-laying activity”.
